Laboratory results: US10800788B2, “4-(aryl)-N-(3-alkoxyfuro[2,3-b]pyrazin-2-yl)-piperazine-1-carboxamide derivative and antiproliferative effect thereof” (Dongguk University Industry-Academic Cooperation Foundation, priority 2016, dated 2020)

How the values were obtained:
[1] = tested on: MDA-MB-231 (breast cancer) cell line; assay: Cell growth inhibition experiment (SRB), MDA-MB-231; assay type: cell-based, human; conditions: Homo sapiens, MDA-MB-231, 96 h, 96 hours incubation
Method in brief: (§1)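 Cells in DMEM with 10% FBS were seeded at 2 to 3×10^3 cells/well, dosed the next day and incubated 96 hours at 37° C, 5% CO2. After TCA fixation and sulforhodamine B staining, OD530 was converted to viable cell number with a per-line standard curve. % survival is test over control; triplicate runs.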

[2] = tested on: UMRC2 (kidney cancer) cell line; assay: Cell growth inhibition experiment (SRB), UMRC2; assay type: cell-based, human; conditions: Homo sapiens, UMRC2, 96 h, 96 hours incubation
Method in brief: as §1

[3] = tested on: PANC-1 (pancreatic cancer) cell line; assay: Cell growth inhibition experiment (SRB), PANC-1; assay type: cell-based; conditions: Homo sapiens, PANC-1, 96 h, 96 hours incubation
Method in brief: as §1

[4] = tested on: HN31 (head and neck cancer) cell line; assay: Cell growth inhibition experiment (SRB), HN31; assay type: cell-based, human; conditions: Homo sapiens, 96 h, 96 hours incubation
Method in brief: as §1

A549 = assay: Cell growth inhibition experiment (SRB), A549; assay type: cell-based; conditions: Homo sapiens, A549, 96 h, 96 hours incubation, read-out: IC50 (μM) for cancer cell line A549
Method in brief: (§2)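 2–3×10^3 cells/well, o/n attach; cpd 96 h, n=3. Fix 10% TCA 1 h 4 °C, 0.4% SRB in 1% AcOH 30 min, 10 mM Tris, A530. OD→cell no. by std curve; % survival vs control.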

HEK293 = assay: Cell growth inhibition experiment (SRB), HEK293; assay type: cell-based, human; conditions: Homo sapiens, HEK293, 96 h, 96 hours incubation, read-out: IC50 (μM) for cancer cell line HEK293
Method in brief: as §2

HUVEC = assay: Cell growth inhibition experiment (SRB), HUVEC; assay type: cell-based, human; conditions: Homo sapiens, HUVEC, 96 h, 96 hours incubation, read-out: IC50 (μM) […]
Method in brief: as §2

HT29 = assay: Cell growth inhibition experiment (SRB), HT29; assay type: cell-based, human; conditions: Homo sapiens, HT-29, 96 h, 96 hours incubation, read-out: IC50 (μM) for cancer cell line HT29
Method in brief: as §2

SK-OV-3 = assay: Cell growth inhibition experiment (SRB), SK-OV-3; assay type: cell-based, human; conditions: Homo sapiens, SK-OV-3, 96 h, 96 hours incubation, read-out: IC50 (μM) for cancer cell line SK-OV-3
Method in brief: as §2

Structure (SMILES) | IC50 [1] | IC50 [2] | IC50 [3] | IC50 [4] | IC50 (A549) | IC50 (HT29) | IC50 (SK-OV-3) | IC50 (HEK293) | IC50 (HUVEC)
COc1cc(C)cc(N2CCN(C(=O)Nc3nc4ccoc4nc3OC)CC2)c1 [Example 2, 4-(3-Methoxy-5-methylphenyl)-N-(3-methoxyfuro[2,3-b]pyrazin-2-yl)piperazine-1-carboxamide] | 0.26 µM | 0.38 µM | 0.45 µM | 0.49 µM | 0.23 µM | 0.62 µM | 0.82 µM | 1.93 µM | 0.91 µM
CCOc1nc2occc2nc1NC(=O)N1CCN(c2cc(OC)cc(OCCN(C)C)c2)CC1 [Example 14, 4-(3-(2-(Dimethylamino)ethoxy)-5-methoxyphenyl)-N-(3-ethoxyfuro[2,3-b]pyrazin-2-yl)piperazine-1-carboxamide] | 0.34 µM | 0.68 µM | 1.23 µM | 0.65 µM | 1.85 µM | < 2.5 µM | < 2.5 µM | < 2.5 µM | < 2.5 µM
COc1cc(OCCN(C)C)cc(N2CCN(C(=O)Nc3nc4ccoc4nc3OC)CC2)c1 [Example 4, 4-(3-(2-(Dimethylamino)ethoxy)-5-methoxyphenyl)-N-(3-methoxyfuro[2,3-b]pyrazin-2-yl)piperazine-1-carboxamide] | 1.13 µM | 0.54 µM | 0.68 µM | 1.54 µM | < 2.5 µM | < 2.5 µM | < 2.5 µM | < 2.5 µM | 1.25 µM
COc1cc(OC)cc(N2CCN(C(=O)Nc3nc4ccoc4nc3OC)CC2)c1 [Example 1, 4-(3,5-Dimethoxyphenyl)-N-(3-methoxyfuro[2,3-b]pyrazin-2-yl)piperazine-1-carboxamide] | 0.12 µM | 0.03 µM | 0.53 µM | 0.27 µM | 1.13 µM | 0.31 µM | 0.27 µM | 0.63 µM | 0.12 µM
COc1nc2occc2nc1NC(=O)N1CCN(c2cc(F)cc(F)c2)CC1 [Example 7, 4-(3,5-difluorophenyl)-N-(3-methoxyfuro[2,3-b]pyrazin-2-yl)piperazine-1-carboxamide] | 1.78 µM | 1.78 µM | 1.89 µM | < 2.5 µM | < 2.5 µM | < 2.5 µM | < 2.5 µM | < 2.5 µM | < 2.5 µM

Continued, in another order:

IC50 [1] | IC50 [2] | IC50 [3] | IC50 [4] | IC50 (A549) | IC50 (HT29) | IC50 (SK-OV-3) | Structure (SMILES) | IC50 (HEK293) | IC50 (HUVEC)
0.24 µM | 0.54 µM | 0.43 µM | 0.44 µM | 1.02 µM | < 2.5 µM | < 2.5 µM | CCOc1nc2oc(C)cc2nc1NC(=O)N1CCN(c2cc(C)cc(C)c2)CC1 [Example 35, 4-(3,5-Dimethylphenyl)-N-(3-ethoxy-6-methylfuro[2,3-b]pyrazin-2-yl)piperazine-1-carboxamide] | 1.12 µM | < 2.5 µM
0.36 µM | 0.87 µM | 1.68 µM | 1.75 µM | < 2.5 µM | < 2.5 µM | < 2.5 µM | CCOc1nc2oc(Cl)cc2nc1NC(=O)N1CCN(c2cc(C)cc(F)c2)CC1 [Example 56, N-(6-Chloro-3-ethoxyfuro[2,3-b]pyrazin-2-yl)-4-(3-fluoro-5-methylphenyl)piperazine-1-carboxamide] | < 2.5 µM | < 2.5 µM
0.44 µM | 0.24 µM | < 2.5 µM | < 2.5 µM | < 2.5 µM | < 2.5 µM | < 2.5 µM | CCOc1nc2occc2nc1NC(=O)N1CCN(c2cc(F)cc(C(F)(F)F)c2)CC1 [Example 18, N-(3-Ethoxyfuro[2,3-b]pyrazin-2-yl)-4-(3-fluoro-5-(trifluoromethyl)phenyl)piperazine-1-carboxamide] | < 2.5 µM | < 2.5 µM
< 2.5 µM | < 2.5 µM | < 2.5 µM | < 2.5 µM | < 2.5 µM | < 2.5 µM | < 2.5 µM | CCOc1nc2oc(Cl)cc2nc1NC(=O)N1CCN(c2cc(F)cc(C(F)(F)F)c2)CC1 [Example 58, N-(6-Chloro-3-ethoxyfuro[2,3-b]pyrazin-2-yl)-4-(3-fluoro-5-(trifluoromethyl)phenyl)piperazine-1-carboxamide] | < 2.5 µM | < 2.5 µM
< 2.5 µM | < 2.5 µM | < 2.5 µM | < 2.5 µM | < 2.5 µM | < 2.5 µM | < 2.5 µM | CCOc1nc2oc(C)cc2nc1NC(=O)N1CCN(c2cccc(OC(F)(F)F)c2)CC1 [Example 40, N-(3-Ethoxy-6-methylfuro[2,3-b]pyrazin-2-yl)-4-(3-(trifluoromethoxy)phenyl)piperazine-1-carboxamide] | < 2.5 µM | < 2.5 µM
